{"source": "paper PMC4007695", "about": "(Cell reports, 2013)", "key": {"[1]": {"molecular_target": "as-TOR2 (TOR2 kinase, analog-sensitive allele) (Saccharomyces cerevisiae, UniProt P32600, L2178A)", "test": "in vitro kinase assay of purified TORC2 at […] ATP", "format": "biochemical"}, "wt-TOR2 (TOR2 kinase)": {"molecular_target": "wt-TOR2 (TOR2 kinase) (Saccharomyces cerevisiae, UniProt P32600)", "test": "in vitro kinase assay of purified TORC2 at […] ATP", "format": "biochemical"}}, "data": [{"smiles": "Cn1c(=O)n(-c2ccc(C(C)(C)C#N)cc2)c2c3cc(-c4cnc5ccccc5c4)ccc3ncc21", "note": "[BEZ235]", "values": [{"measurement": "IC50", "setting": "[1]", "result": 0.05, "unit": "µM"}, {"measurement": "IC50", "setting": "wt-TOR2 (TOR2 kinase)", "result": 0.111, "unit": "µM"}]}]}
